What follows are substances tested against USP30 (Homo sapiens (Human), UniProt Q70CQ3) (assay: USP30 biochemical FP or FI IC50 assay). Details: read-out: IC50 range.
Experimental: In Vitro USP30 FP Inhibition Assay
USP30 Biochemical IC50 Assay
(§1) Dilution plates were prepared at 21 times the final concentration (2100 μM for a final concentration of 100 μM) in 50% DMSO in a 96-well polypropylene V-bottom plate (Greiner #651201). A typical 8-point dilution series would be 100, 30, 10, 3, 1, 0.3, 0.1, 0.03 μM final. Reactions were performed in duplicate in black 384 well plates (small volume, Greiner 784076) in a final reaction volume of 21 μl. Either 1 μl of 50% DMSO or diluted compound was added to the plate. USP30 was diluted in reaction buffer (40 mM Tris, pH 7.5, 0.005% Tween 20, 0.5 mg/ml BSA, 5 mM—beta-mercaptoethanol) to the equivalent of 0.05 µl/well and 10 μl of diluted USP30 was added to the compound. Enzyme and compound were incubated for 30 min at room temp. Reactions were initiated by the addition of 50 nM of TAMRA labelled peptide linked to ubiquitin via an iso-peptide bond as fluorescence polarisation substrate. Reactions were read immediately after addition of substrate and following a 2 hr incubation at room temperature. Readings were performed on a Pherastar Plus (BMG Labtech). λ Excitation 540 nm; λ Emission 590 nm.
In Vitro USP30 FI Inhibition Assay
USP30 Biochemical Fluorescence Intensity IC50 Assay
as §1, with “0.001 μl/well” for “0.05 µl/well”, “Ubiquitin-Rhodamine 110 (U-555; Boston Biochem) at a final concentration” for “50 nM”, “100 nM.” for “TAMRA labelled peptide linked to ubiquitin via an iso-peptide bond as fluorescence polarisation substrate.”, “h” for “hr”, “487” for “540”, “535” for “590”

Sequence of USP30 (Q70CQ3 57-517): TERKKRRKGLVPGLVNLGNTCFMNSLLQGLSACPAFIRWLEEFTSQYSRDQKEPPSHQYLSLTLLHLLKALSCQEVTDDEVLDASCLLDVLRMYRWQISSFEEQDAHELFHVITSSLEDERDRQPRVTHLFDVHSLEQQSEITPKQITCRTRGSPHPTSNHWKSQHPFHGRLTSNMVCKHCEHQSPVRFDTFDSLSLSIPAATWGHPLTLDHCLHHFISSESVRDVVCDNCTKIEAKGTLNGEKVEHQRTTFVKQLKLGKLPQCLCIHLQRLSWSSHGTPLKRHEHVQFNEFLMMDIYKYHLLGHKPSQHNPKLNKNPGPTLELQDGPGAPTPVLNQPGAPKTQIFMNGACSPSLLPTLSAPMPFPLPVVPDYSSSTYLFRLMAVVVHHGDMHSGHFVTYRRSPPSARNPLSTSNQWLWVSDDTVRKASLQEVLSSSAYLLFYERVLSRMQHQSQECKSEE

Row | Substance | IC50 [nM]
1 | N-((R)-1-cyano pyrrolidin-3-yl)- ((2S,6R)-2,6- dimethyl morpholino)- 5-fluoroiso nicotinamide [Example 140] | 100 to 1000
2 | N-(1-cyanopyrrolidin-3-yl)-6-(4- phenoxypiperidin-1- yl)nicolinamide [Example 22] | 100 to 1000
3 | rac-(3aR, 6aR)-1-(3-phenyl-1II- pyrazole-5- carbonyl)hexahydropyrrolo[3,4- b]pyrrole-5(1H)-carbonitrile [Example 52] | 100 to 1000
4 | (R)-3-(1H-benzo [d]imidazol-2-yl)- N-(1-cyano pyrrolidin-3- yl)azetidine-1- carboxamide [Example 134] | 100 to 1000
5 | (R)-N-(1-cyano pyrrolidin-3-yl)- 3-phenoxy azetidine- 1-carboxamide [Example 133] | 100 to 1000

From patent US11390584B2, “1-cyano-pyrrolidine compounds as USP30 inhibitors” (Mission Therapeutics Limited, priority 2015, dated 2022)
